Assay results from patent publication US20100003190A1, “Method for protecting renal tubular epithelial cells from radiocontrast nephropathy (RCN)” (Caritas St. Elizabeth's Medical Center of Boston, Inc., priority 2006, published 2010).

What was measured:
[1] = MTT cell viability of HK-2 cells exposed to iodinated radiocontrast media, with or without rhEpo; type: cell-based, human; conditions: human, HK-2 cells (proximal tubular cell line), HK-2 cells, 100 mg iodine/mL contrast media, read-out: reduction of cell viability (MTT); for cytotoxicity at 1 h, 100 mg iodine/mL: 1-hour incubation; for cytotoxicity at 6 h, 100 mg iodine/mL: 6-hour incubation
Experimental: (§1) HK-2, a proximal tubular cell line derived from normal human kidney, and LLC-PK1, a proximal renal tubular cell line of porcine origin, were obtained from the American Type Culture Collection ATCC (Manassas, Va.). HK-2 cells were grown in DMEM media (GIBCO) supplemented with 10% FBS (Hyclone), 15 mM HEPES, 2 mM L-glutamine, 50 U/ml penicillin, 50 μg/ml streptomycin (GIBCO), 0.1 μg/ml hydrocortisone, 5 μg/ml insulin, and 5 μg/ml apotransferrin (Sigma, St. Louis, Mo.). LLC-PK1 cells were maintained in medium 199 (GIBCO) supplemented with 10% FBS and penicillin-streptomycin. For the planned experiments, cells were seeded on 24-well plates at a density of 10^4 cells/cm^2 and cultured at 37° C. for 24 hours.
(§2) […] The cell viability was assessed by the mitochondrial activity in reducing MTT to form […] using a commercially available kit (Cell Proliferation Kit, Roche, Penzberg, Germany). In brief, cells were incubated at 37° C. for 4 hours in 200 μl of serum-free, phenol red free medium containing 20 μl of the MTT labeling reagent. 200 μl of solubilization solution were added to each well and cells were incubated at 37° C. for 24 hours. Aliquots of the incubation medium were transferred to a 96-well microplate and absorbance was measured at 570 nm with the reference of 690 nm using a microplate reader (MRX-II, Dynex).

[2] = system: LLC-PK1 cells; experiment: MTT cell viability of LLC-PK1 cells exposed to iodinated radiocontrast media, with or without rhEpo or darbepoetin; type: cell-based, porcine; conditions: LLC-PK1 cells (data not shown)
Experimental: as §1
Cells were exposed to iodinated radiocontrast media (100 mg iodine/ml) for 6 hours at 37° C., then washed twice with Dulbecco PBS solution, and incubated in serum-free culture medium for 24 hours at 37° C. The cell viability was assessed by the mitochondrial activity in reducing MTT to form […] using a commercially available kit (Cell Proliferation Kit, Roche, Penzberg, Germany). […] Aliquots of the incubation medium were transferred to a 96-well microplate and absorbance was measured at 570 nm with the reference of 690 nm using a microplate reader (MRX-II, Dynex).

[3] = system: caspase-3; experiment: Caspase-3 activity (Caspase-Glo 3/7) in LLC-PK1 cells after radiocontrast media; type: cell-based, porcine
Experimental: Activity of caspase-3 was measured by the degradation of subtype-specific peptide substrate after exposure of LLC-PK1 cells to iohexol or iodixanol. In brief, cells were seeded in 96-well plates and treated with radiocontrast media as described. After removal of the media, 100 μl of the Caspase-Glo 3/7 reagent (Promega, Madison, Wis.) were added to each well, and cells were incubated at room temperature for 1 hour. Luminescence of each sample was measured on a luminometer (Lumat LB9507, EGG Berthold). As a control for specificity, DEVD-CHO (Calbiochem, EMD Biosciences), a caspase-3 inhibitor, was added to appropriate wells during incubation in a final concentration of 50 μM. In parallel, cells were stained in wells with crystal violet and the absorption at 600 nm was measured. For each well, the luminometer data were normalized to the level of crystal violet absorption.

[4] = system: HK-2 cells; experiment: MTT cell viability of HK-2 cells exposed to iodinated radiocontrast media, with or without rhEpo; type: cell-based, human
Experimental: as §1, §2

[5] = patients with chronic renal failure; cited from earlier work
[6] = renal tubular epithelial cells, co-treatment, cell line not given

## CC(=O)N(CC(O)CN(C(C)=O)c1c(I)c(C(=O)NCC(O)CO)c(I)c(C(=O)NCC(O)CO)c1I)c1c(I)c(C(=O)NCC(O)CO)c(I)c(C(=O)NCC(O)CO)c1I (stereo not shown) [iodixanol]
[1]
  cytotoxicity at 1 h, 100 mg iodine/mL: 33%
  cytotoxicity at 6 h, 100 mg iodine/mL: 48%
[2]
  cell damage by radio-contrast agent: marked cell damage
[3]; LLC-PK1 cells, 100 mg iodine/ml
  effect on caspase-3 activity: induced an increase

## rhEpo: Recombinant human erythropoietin, a widely available agent for the treatment of anemia; Epoetin alfa (EPOGEN) purchased from Amgen
[4]; HK-2 cells, 200 U/ml rhEpo, iodixanol 100 mg iodine/ml
  protective effect against cytotoxic effect of iodixanol: similarly protective
[4]; HK-2 cells, 6 hours iohexol, three concentrations of rhEpo (0-400 U/ml), dose dependent
  protective effect against cellular toxicity of iohexol: partially reversed
[4]; HK-2 cells, iohexol
  concentration providing ceiling of protective effect: 200 U/ml
[4]; [6]
  reduction of toxicity of iodixanol (MTT cell viability assay): 20%
  reduction of toxicity of iohexol (MTT cell viability assay): 20%
[3]; LLC-PK1 cells, co-treatment, rhEpo 200 U/ml
  effect on iohexol-induced caspase-3 activation: suppressed
[3]; co-treatment of cells with rhEpo
  reduction of the induction of caspase-3 activation by iohexol: 20%

## CC(=O)N(CC(O)CO)c1c(I)c(C(=O)NCC(O)CO)c(I)c(C(=O)NCC(O)CO)c1I (stereo not shown) [iohexol]
[1]
  cytotoxicity at 1 h, 100 mg iodine/mL: 36%
  cytotoxicity at 6 h, 100 mg iodine/mL: 60%
[2]
  cell damage by radio-contrast agent: marked cell damage

## C[C@H](O)C(=O)Nc1c(I)c(C(=O)NC(CO)CO)c(I)c(C(=O)NC(CO)CO)c1I [iopamidol]
[5]
  elimination half-life: about 70 hours

## CC(=O)Nc1c(I)c(NC(C)=O)c(I)c(C(=O)O)c1I [diatrizoate, 3,5-Diacetamido-2,4,6-triiodobenzoic acid]
[1]
  cytotoxicity at 1 h, 100 mg iodine/mL: 44%
  cytotoxicity at 6 h, 100 mg iodine/mL: 99%
[4]; HK-2 cells, 6-hour incubation
  toxic effects on renal tubular cells, comparison between contrast media: more toxicity

## DEVD-CHO
[3]; LLC-PK1 cells, iohexol or iodixanol, co-treatment with inhibitor 50 μM
  effect on radiocontrast-induced increase in caspase-3 activity: abrogated
